Activity calls are given as the source filed them. The calls are words filed in the database; no cut-off is given here.
Assays:
[1] = biological target: T1, Serine/threonine-protein kinase greatwall (Homo sapiens) (UniProt Q96GX5); test: Inhibition of MASTL ATP labeling site in human Huh-7 cells at 10 uM by KiNativ Profiling analysis relative to control; format: cell-based
T1 sequence (whole entry): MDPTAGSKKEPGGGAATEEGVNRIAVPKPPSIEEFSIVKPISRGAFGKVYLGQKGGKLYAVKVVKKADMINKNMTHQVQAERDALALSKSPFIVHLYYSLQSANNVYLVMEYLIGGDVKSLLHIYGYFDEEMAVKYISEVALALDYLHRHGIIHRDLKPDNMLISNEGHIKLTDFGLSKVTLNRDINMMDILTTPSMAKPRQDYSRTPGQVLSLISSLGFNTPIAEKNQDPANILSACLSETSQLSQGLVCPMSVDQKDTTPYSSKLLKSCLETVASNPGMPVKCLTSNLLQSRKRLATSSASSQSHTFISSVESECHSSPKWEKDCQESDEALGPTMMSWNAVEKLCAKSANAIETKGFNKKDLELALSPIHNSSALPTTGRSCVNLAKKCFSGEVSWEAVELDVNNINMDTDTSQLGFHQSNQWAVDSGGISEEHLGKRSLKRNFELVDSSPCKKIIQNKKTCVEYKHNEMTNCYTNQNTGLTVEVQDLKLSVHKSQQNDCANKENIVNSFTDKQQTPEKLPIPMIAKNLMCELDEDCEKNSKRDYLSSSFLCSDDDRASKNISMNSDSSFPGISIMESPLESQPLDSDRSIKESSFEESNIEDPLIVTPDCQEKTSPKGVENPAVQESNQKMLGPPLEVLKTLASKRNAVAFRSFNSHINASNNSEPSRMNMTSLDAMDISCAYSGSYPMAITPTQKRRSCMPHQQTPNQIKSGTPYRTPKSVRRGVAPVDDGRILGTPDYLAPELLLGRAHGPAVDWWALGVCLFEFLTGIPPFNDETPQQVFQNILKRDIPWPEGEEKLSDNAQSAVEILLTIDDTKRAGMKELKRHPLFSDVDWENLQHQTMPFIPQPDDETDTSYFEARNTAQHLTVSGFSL

[2] = biological target: Tyrosine-protein kinase CSK (Homo sapiens, UniProt P41240); test: Inhibition of CSK ACT labeling site harbouring VSDFGLTKEASSTQDTGKLPVKWTAPEALR in human Huh-7 cells at 10 uM by KiNativ Profiling analysis relative to control; format: cell-based
Chain of Tyrosine-protein kinase CSK (P41240 2-450 limits assumed): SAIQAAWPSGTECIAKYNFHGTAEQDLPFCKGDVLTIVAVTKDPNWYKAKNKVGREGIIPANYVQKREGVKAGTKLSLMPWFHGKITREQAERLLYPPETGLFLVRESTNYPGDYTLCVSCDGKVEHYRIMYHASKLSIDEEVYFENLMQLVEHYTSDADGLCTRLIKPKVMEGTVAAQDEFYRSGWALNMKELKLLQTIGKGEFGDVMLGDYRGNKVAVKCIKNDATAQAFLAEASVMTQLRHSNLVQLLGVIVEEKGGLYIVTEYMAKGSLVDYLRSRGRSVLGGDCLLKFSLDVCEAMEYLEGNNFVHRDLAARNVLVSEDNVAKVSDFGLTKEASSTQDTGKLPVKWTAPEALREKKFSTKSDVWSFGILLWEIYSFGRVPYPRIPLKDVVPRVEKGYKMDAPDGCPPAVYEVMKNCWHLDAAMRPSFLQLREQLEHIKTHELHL

[3] = biological target: Cyclin-dependent kinase 17 (Homo sapiens) (UniProt Q00537); test: Inhibition of PCTAIRE2 K2 labeling site in human Huh-7 cells at 1 uM by KiNativ Profiling analysis relative to control; format: cell-based
Chain of Cyclin-dependent kinase 17 (Homo sapiens) (Q00537 whole entry, looked up): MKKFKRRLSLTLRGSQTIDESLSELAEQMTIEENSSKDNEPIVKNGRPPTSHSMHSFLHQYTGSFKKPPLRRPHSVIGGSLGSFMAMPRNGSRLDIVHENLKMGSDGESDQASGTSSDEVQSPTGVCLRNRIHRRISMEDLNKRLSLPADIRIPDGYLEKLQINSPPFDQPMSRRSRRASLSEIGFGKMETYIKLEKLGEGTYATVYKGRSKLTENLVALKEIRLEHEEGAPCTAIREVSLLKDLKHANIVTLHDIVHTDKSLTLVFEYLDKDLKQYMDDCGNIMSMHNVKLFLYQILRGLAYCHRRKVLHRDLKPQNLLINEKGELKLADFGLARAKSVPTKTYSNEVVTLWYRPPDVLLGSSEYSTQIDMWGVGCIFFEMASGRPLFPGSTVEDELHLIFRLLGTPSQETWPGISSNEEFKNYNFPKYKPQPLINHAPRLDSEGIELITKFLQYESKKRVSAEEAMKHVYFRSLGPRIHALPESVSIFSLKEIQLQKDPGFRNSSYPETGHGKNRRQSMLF

[4] = biological target: 5'-AMP-activated protein kinase catalytic subunit alpha-2 (Homo sapiens) (UniProt P54646); test: Inhibition of AMPK-alpha2 (unknown origin) at 10 uM by Ambit Kinomescan binding assay
Chain of 5'-AMP-activated protein kinase catalytic subunit alpha-2 (Homo sapiens) (P54646 whole entry, looked up): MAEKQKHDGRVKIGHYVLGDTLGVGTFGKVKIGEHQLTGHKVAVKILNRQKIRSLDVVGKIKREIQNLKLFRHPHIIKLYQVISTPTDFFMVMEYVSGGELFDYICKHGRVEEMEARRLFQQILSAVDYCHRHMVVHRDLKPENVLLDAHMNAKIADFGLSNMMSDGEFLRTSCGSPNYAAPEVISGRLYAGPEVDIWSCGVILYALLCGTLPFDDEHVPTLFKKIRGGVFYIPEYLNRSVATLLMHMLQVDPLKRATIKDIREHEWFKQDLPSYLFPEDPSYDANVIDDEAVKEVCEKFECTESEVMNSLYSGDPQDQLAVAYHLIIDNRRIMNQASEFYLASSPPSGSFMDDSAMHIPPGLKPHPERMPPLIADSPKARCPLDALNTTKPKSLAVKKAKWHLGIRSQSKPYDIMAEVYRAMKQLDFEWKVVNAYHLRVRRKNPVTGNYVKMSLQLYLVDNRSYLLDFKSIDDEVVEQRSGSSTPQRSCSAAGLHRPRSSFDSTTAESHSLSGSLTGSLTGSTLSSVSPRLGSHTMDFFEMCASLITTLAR

[5] = biological target: T2, Mitogen-activated protein kinase kinase kinase 3 (Homo sapiens) (UniProt Q99759); test: Inhibition of MAP3K3 Lys2 labeling site in human Huh-7 cell lysate at 1 uM by KiNativ Profiling analysis relative to control; format: subcellular
T2 sequence (whole entry): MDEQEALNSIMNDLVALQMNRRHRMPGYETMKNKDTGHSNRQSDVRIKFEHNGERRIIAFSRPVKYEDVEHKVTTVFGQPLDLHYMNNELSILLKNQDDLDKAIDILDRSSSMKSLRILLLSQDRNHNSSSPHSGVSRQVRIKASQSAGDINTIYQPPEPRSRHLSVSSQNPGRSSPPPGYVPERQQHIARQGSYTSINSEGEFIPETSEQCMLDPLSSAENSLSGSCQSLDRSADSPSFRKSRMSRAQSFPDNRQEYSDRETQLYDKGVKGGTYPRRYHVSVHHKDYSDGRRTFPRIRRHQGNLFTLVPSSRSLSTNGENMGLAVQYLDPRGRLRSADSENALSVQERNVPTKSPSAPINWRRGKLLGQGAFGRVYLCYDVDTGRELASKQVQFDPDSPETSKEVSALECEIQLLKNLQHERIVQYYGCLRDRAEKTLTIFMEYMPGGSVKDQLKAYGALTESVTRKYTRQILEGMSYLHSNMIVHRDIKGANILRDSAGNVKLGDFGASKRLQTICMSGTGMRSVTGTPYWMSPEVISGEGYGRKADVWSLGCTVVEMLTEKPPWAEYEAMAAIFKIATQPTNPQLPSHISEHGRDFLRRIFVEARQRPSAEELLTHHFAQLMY

[6] = biological target: T3, Serine/threonine-protein kinase D1 (Homo sapiens) (UniProt Q15139); test: Inhibition of PKD1 Lys2 labeling site in human Huh-7 cell lysate at 1 uM by KiNativ Profiling analysis relative to control; format: subcellular
T3 sequence (whole entry): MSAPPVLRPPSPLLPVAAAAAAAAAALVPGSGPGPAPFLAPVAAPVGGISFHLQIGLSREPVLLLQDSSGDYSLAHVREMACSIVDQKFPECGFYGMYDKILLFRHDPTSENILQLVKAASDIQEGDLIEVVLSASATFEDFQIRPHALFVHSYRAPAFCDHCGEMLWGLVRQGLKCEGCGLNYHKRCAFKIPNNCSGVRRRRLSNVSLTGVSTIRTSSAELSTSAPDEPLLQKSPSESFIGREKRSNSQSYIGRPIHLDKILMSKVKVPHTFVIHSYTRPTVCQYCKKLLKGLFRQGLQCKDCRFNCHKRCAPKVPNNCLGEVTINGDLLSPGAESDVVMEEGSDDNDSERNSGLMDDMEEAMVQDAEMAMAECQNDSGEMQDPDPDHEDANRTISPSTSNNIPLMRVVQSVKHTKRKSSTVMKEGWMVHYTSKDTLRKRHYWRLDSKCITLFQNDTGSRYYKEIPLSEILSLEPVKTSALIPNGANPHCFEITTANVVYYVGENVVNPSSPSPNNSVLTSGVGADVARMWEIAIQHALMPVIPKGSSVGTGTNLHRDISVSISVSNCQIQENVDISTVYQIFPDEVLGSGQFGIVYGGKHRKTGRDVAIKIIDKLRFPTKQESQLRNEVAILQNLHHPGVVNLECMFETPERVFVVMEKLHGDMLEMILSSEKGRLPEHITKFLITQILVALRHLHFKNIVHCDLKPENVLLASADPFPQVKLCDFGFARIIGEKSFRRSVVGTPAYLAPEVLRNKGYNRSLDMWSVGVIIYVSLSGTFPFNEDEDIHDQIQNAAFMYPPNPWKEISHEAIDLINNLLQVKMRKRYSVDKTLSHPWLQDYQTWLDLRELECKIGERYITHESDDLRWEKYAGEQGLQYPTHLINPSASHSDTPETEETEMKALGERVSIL

[7] = biological target: Rho-associated protein kinase 1 (Homo sapiens) (UniProt Q13464); test: Inhibition of ROCK1 in human Huh-7 cell lysate at 1 uM by KiNativ Profiling analysis relative to control; format: subcellular
Chain of Rho-associated protein kinase 1 (Homo sapiens) (Q13464 2-1354 limits assumed): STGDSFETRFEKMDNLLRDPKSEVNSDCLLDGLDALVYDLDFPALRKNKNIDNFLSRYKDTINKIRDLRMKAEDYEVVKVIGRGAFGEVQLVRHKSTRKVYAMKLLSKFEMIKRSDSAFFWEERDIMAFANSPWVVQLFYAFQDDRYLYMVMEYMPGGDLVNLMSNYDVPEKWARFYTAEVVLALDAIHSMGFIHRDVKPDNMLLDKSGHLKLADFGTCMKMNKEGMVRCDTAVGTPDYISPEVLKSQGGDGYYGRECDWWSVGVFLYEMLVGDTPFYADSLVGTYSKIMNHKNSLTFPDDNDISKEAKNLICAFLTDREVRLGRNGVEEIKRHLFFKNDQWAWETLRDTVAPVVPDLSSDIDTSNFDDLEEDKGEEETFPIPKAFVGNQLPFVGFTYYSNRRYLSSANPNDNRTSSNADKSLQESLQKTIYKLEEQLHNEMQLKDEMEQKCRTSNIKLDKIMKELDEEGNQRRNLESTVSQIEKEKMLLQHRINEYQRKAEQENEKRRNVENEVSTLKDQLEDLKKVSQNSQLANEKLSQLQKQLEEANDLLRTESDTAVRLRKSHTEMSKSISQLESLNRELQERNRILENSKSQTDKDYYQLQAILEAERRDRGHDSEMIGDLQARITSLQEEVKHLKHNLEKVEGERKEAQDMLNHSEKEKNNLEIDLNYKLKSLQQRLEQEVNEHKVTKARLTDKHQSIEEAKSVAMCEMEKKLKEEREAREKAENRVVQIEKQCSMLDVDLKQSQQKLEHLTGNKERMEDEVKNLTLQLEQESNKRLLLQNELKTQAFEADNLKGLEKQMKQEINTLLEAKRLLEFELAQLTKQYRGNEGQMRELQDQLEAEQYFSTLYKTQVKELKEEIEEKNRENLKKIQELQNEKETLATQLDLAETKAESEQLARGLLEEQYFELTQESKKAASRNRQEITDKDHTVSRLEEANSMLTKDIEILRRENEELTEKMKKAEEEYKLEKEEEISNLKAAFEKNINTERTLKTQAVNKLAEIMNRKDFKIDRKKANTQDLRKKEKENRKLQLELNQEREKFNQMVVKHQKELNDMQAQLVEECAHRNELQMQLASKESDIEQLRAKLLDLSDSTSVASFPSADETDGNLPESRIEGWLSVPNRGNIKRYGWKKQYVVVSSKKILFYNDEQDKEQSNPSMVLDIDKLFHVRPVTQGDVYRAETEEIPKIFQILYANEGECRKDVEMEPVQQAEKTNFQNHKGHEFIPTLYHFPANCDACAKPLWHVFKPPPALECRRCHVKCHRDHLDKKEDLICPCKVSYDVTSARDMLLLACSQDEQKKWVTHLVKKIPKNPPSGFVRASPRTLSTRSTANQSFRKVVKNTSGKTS

[8] = biological target: Serine/threonine-protein kinase PAK 3 (Homo sapiens) (UniProt O75914); test: Inhibition of PAK3 (unknown origin) at 1 uM by Ambit Kinomescan binding assay relative to control; values are per cent of control
Chain of Serine/threonine-protein kinase PAK 3 (Homo sapiens) (O75914 whole entry, looked up): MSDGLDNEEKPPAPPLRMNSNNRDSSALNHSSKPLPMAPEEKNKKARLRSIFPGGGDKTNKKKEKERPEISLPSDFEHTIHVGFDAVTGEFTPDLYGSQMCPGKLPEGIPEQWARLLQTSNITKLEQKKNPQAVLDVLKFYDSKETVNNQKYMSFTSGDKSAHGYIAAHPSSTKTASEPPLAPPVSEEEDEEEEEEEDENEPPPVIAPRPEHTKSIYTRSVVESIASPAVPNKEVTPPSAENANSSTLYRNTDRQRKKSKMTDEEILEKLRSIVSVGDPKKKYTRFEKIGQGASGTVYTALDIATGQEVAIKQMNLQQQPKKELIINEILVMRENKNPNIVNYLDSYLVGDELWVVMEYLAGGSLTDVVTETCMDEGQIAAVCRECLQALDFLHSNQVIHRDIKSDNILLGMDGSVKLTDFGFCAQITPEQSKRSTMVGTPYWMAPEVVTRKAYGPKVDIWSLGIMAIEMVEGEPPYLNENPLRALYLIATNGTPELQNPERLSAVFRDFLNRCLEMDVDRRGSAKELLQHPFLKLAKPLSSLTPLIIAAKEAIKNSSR

CCN1CCN(Cc2ccc(NC(=O)c3ccc(C)c(Oc4ccnc5[nH]ccc45)c3)cc2C(F)(F)F)CC1
inhibition [1]: 3.9%
inhibition [2]: -2.7%
inhibition [3]: -3.4%
inhibition [4]: inactive

CNc1cc(Oc2cc(C(=O)Nc3cc(N4CCN(C)CC4)cc(C(F)(F)F)c3)ccc2C)ncn1
inhibition [5]: 1.9%
inhibition [6]: -3.5%
inhibition [7]: 7.6%

CCN1CCN(Cc2ccc(NC(=O)c3ccc(C)c(/C=C/c4cnc5[nH]ccc5c4OC)c3)cc2C(F)(F)F)CC1
residual activity [8]: 66%
